{
  "source": "patent US6037333A",
  "about": "“Microbe-inhibiting compositions” (Trustees of Tufts College, priority 1998, dated 2000)",
  "key": {"Acanthamoeba [1]": {"test_system": "Acanthamoeba", "experiment": "Acanthamoeba-induced cytopathic effect (CPE) assay, immortalized corneal epithelial cultures", "type": "cell-based", "conditions": "for Inhibition of amoeba-induced CPE: no concentration stated", "procedure": "Corneal epithelial cells with extended life span were also produced.\nTo characterize the role of carbohydrate-mediated host-parasite interactions in the Acanthamoeba-induced cytotoxicity of host cells, in vitro cytopathic assays were performed using both primary and immortalized cultures of corneal epithelium as host cells. Immortalized cells were assayed as confluent cultures in 24-well plates, and primary cells were assayed as confluent cells in 35-mm dishes or 6-well plates.\nThe plates were incubated at 37° C. in a CO2 incubator and periodically examined under a phase-contrast microscope for the presence of cell-free plaques in the monolayer for up to 28-30 hours. Control wells contained host cells without the parasites. At the end of the incubation period, the cultures were stained with Giemsa (Diff-Quik, Dade Diagnostic Inc., Aguada, PR). Approximate cell density in each well was estimated by scanning the stained plates in a calibrated, computer-assisted Bio-Image Scanner (Millipore, Ann Arbor, Mich.). Cytopathic effect (CPE) was expressed as percentage of the optical density by the following formula: [formula]\nThe CPE assays were performed in the SFB media containing one or more saccharides to be tested.\nAfter staining with Giemsa, percent cell loss in each well was calculated based on the optical density in each well."}, "Acanthamoeba [2]": {"test_system": "Acanthamoeba", "experiment": "51Cr release assay of amoeba-induced cytolysis of corneal epithelium", "type": "cell-based", "procedure": "Chromium release experiments were performed to confirm the absence or occurrence of cytolysis. Visually, cell plaques or bare spots in a culture can indicate either cell loss by cytolysis, or separation of the cell from the culture surface, wherein detached cells, although initially viable, subsequently die. Cell lysis was quantified by measuring ^51 Cr release from prelabeled cells. After incubating confluent monolayer cultures of corneal epithelium in 24-well plates in cell culture medium containing Na^51 CrO4 (460 mCi/mg, 12 μCi/ml) for 18-20 hours, the cells were thoroughly rinsed and incubated with Acanthamoeba (1×10^6 parasites/ml SFB media). The four groups were (i) Acanthamoeba in media alone, (ii) Acanthamoeba in media containing α-Man, (iii) Acanthamoeba in media containing GlcNAc, and (iv) Acanthamoeba condition media. When approximately 50-70% cell loss occurred based on phase contrast microscopy, aliquots of cell-free conditioned medium from each well were analyzed. Supernatants from the four wells in each group were pooled before analysis. Percent specific release was calculated using E/T×100, where E is CPM released in test well minus CPM released in control (parasite-free) well and T is the total CPM (CPM cells+CPM supernatant in control wells). \"CPM cells\" was determined by incubating control wells with 0.5% Triton X-100. Conditioned media from each well was also analyzed for lactate dehydrogenase (LDH) release using an LDH assay kit (Sigma)."}, "proteinases P2 and P3": {"target": "proteinases P2 and P3", "experiment": "Zymography of media conditioned by amoebae with primary corneal epithelium, with or without α-Man", "type": "cell-based, Acanthamoeba", "conditions": "amoebae with host cells, adhesion blocked by saccharide", "procedure": "To characterize the mechanism by which the mannose-mediated host-parasite interactions influence the amoeba-induced cytolysis and/or cytopathic effect, conditioned media obtained by incubating amoebae with primary cultures of corneal epithelium in the presence and absence of α-Man for 6 to 8 hours were analyzed by zymography. Media conditioned by only Acanthamoeba or only epithelial cells were also analyzed. Zymography was performed using separating gels containing 10% acrylamide and 2 mg/ml gelatin, essentially as described by D. E. Kleiner et al. (Anal Biochem. 218:325-329, 1994). Samples were diluted in the electrophoresis sample buffer (U. K. Laemmli, Nature 227:680-685, 1970) without mercaptoethanol and were applied to the gels. After electrophoresis, proteinases separated on the gels were renatured by incubating the gels in 2.5% Triton X-100 in 50 mM Tris-HCl, pH 7.5 to remove SDS. After incubating the gels for 18 hours in a developing buffer (50 mM Tris-HCl, pH 7.5 containing 10 mM CaCl2), the gels were stained with Coomassie brilliant blue. Areas of digestion were visualized as non-staining regions. In some experiments, samples were pre-treated with phenylmethylsulfonyl fluoride (PMSF, 1 mM), an inhibitor of […] for one hour prior to electrophoresis, or 1,10-phenanthroline (1 mM), an inhibitor of metalloproteinases, was added to the developing buffer."}, "Acanthamoeba [3]": {"test_system": "Acanthamoeba", "experiment": "Adhesion of amoebae to corneal epithelial cell monolayer", "type": "cell-based", "conditions": "saccharide present in media"}},
  "note": "“Also recorded” adds a separate entry of the source.",
  "data": [
    {"smiles": "CO[C@H]1O[C@H](CO)[C@@H](O)[C@H](O)[C@@H]1O", "note": "[Methyl-α-D-mannopyranoside]", "values": [
      {"measurement": "inhibition at 310 µM", "setting": "Acanthamoeba [1]; Acanthamoeba, in Oryctolagus cuniculus, at 0.31 mM, read-out: Inhibition of cytopathic effect (% inhib. at indicated conc.)", "result": 61, "unit": "%"},
      {"measurement": "Time at which cell layer began to lift from the periphery", "setting": "Acanthamoeba [1]; incubation with amoebae in presence of saccharide, without it nearly complete loss after about 20 hours", "result": "20 to 28", "unit": "h"},
      {"measurement": "Inhibition of amoeba-induced CPE", "setting": "Acanthamoeba [1]; listed as Methyl-α-mannopyranoside", "result": "potent inhibitors"},
      {"measurement": "Inhibition of amoeba-induced CPE", "setting": "Acanthamoeba [1]; listed as α-Man", "result": "nearly identical"},
      {"measurement": "Amoeba-induced cytolysis of corneal epithelial cells (microscopy, words)", "setting": "Acanthamoeba [1]; saccharide present in media", "result": "substantially inhibited"},
      {"measurement": "Cell-free plaques in monolayer", "setting": "Acanthamoeba [1]; saccharide present in media", "result": "not detected"},
      {"measurement": "Percentage specific 51Cr release", "setting": "Acanthamoeba [2]; Acanthamoeba 1×10^6 parasites/ml in media containing the saccharide, media alone about 100", "result": "~28", "unit": "%"},
      {"measurement": "Inhibition of amoeba-induced cytolysis", "setting": "Acanthamoeba [2]; fifty millimolar, 51Cr release", "result": "more than 70%"},
      {"measurement": "Expression of proteinase P2 (97 kD)", "setting": "proteinases P2 and P3", "result": "robustly expressed"},
      {"measurement": "Expression of proteinase P3 (80 kD)", "setting": "proteinases P2 and P3; listed as α-Man", "result": "not expressed; also recorded: not detected"},
      {"measurement": "Adhesion of amoebae to the cell monolayer in presence of saccharide", "setting": "Acanthamoeba [3]", "result": "did not adhere"}
    ]}
  ]
}
